# Experiments:
# [1] = tested on: A375, SW620, LOVO and HCT116 xenografts; assay: Tumor xenografts in nude mice, tumor growth; assay type: in vivo; settings: single administration
# Experimental: Six-week-old female athymic NU/NU nude mice were injected subcutaneously with 5×10^5 of A375, SW620, LOVO, and HCT116 in […] culture media/Matrigel at a 1:5 ratio. For cell-line-derived xenografts, animals were randomized at a tumor volume of 70 to 120 mm^3 to four to six groups, with n=8-10 tumors per group. […] Xenografts were measured with digital caliper, and tumor volumes were determined with the formula: […]. Animals were euthanized using CO2 inhalation. Tumor volumes are plotted as means±SEM. Mice were housed in air-filtered laminar flow cabinets with a 12-hr light/dark cycle and food and water ad libitum. […]
# [2] = tested on: B16F10 melanoma lung metastases
# Experimental: A luciferase-expressing B16F10 melanoma lung metastasis model was used. The cells were injected into the tail vein at day 0. The FiDOX particles and controls were injected at day 7. The progression of metastasis was monitored with bioluminescence imaging after injection of luciferin. The bioluminescence images show the luciferase-expressing B16F10 cancer cells after injection of D-luciferin, 21 days after inoculation and 14 days after a single treatment.
# FIG. 8 is a plot showing laboratory mouse survival curve data in the B16F10 melanoma lung metastasis model treated with a single injection of FiDOX nanoparticles, injected on day 7.
# C57BL/6 mice were inoculated intravenously (i.v.) with 1×10^5B16-F10 cells on day 0 and the tumor was allowed to establish until day 7. In one experiment, mice were divided randomly into 5 groups and injected i.v. with FiDOX, Fi, DexDOX.
# After treatment, mice were monitored up to 8 or 17 weeks, depending on the treatment received. At the end of the experiments, mice were sacrificed, their lungs were collected, and the number of surface-visible tumors was examined. The Kaplan-Meier method was used to evaluate survival.
# The anti-tumor efficacy of P-selectin-targeted drug carrier nanoparticles was assessed against an aggressive experimental metastasis model. […]
Compound,tumor growth inhibition [1],survival ([2]; single injection on day 7),"tumor burden ([2]; single injection, bioluminescence)"
"Cn1cnc2c(F)c(Nc3ccc(Br)cc3F)c(C(=O)NOCCO)cc21 [MEK162, 6-(4-bromo-2-fluoroanilino)-7-fluoro-N-(2-hydroxyethoxy)-3-methylbenzimidazole-5-carboxamide]",no effect,,
"COc1cccc2c1C(=O)c1c(O)c3c(c(O)c1C2=O)C[C@@](O)(C(=O)CO)C[C@@H]3O[C@H]1C[C@H](N)[C@H](O)[C@H](C)O1 [doxorubicin, (7S,9S)-7-[(2R,4S,5S,6S)-4-amino-5-hydroxy-6-methyloxan-2-yl]oxy-6,9,11-trihydroxy-9-(2-hydroxyacetyl)-4-methoxy-8,10-dihydro-7H-tetracene-5,12-dione]",,did not have a significant effect,did not have a significant effect
